What was measured:
LovD = molecular target: T1, LovD (Aspergillus terreus, UniProt Q9Y7D1); test: LovD transacylation assay: acyl transfer from acyl thioester to C8 hydroxyl of monacolin J, HPLC; assay type: biochemical; parameters: 6xHis (N); made in house; host or cells: E. coli BL21(DE3)/pAW31 (pET28a); conditions: for Initial Velocity (ki): 1 mM MJ, 4 mM thioester substrate, 10 uM pure LovD, rate of initial turnover in the linear range; for Initial Velocity (ki) / apparent kcat (initial turnover rate in the linear range) of monacolin J acylation: 50 mM HEPES, pH 7.9; for substrate competence for LovD / apparent kcat (initial turnover rate in the linear range) of monacolin J acylation: 1 mM monacolin J; for substrate competence for LovD: 4 mM acyl-CoA, 10 uM LovD, 10 hours; for apparent kcat (initial turnover rate in the linear range) of monacolin J acylation: 10 μM LovD, 4 mM acyl donor
T1 sequence (Q9Y7D1 1-413): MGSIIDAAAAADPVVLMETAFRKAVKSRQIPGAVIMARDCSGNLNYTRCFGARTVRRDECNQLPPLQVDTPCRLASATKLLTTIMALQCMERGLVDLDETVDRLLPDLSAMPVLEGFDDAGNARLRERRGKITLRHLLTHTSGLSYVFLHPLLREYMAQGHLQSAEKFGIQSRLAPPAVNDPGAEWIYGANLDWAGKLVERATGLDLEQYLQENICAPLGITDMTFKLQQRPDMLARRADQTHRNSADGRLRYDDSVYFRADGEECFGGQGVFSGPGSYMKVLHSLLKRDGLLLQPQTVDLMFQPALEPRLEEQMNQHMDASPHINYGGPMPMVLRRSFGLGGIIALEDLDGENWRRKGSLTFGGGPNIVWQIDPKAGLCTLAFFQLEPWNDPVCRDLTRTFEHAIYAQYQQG
Protocol: We first examined if an acyl-CoA can be used as substrate for the transacylation reaction. The uninterrupted gene of LovD was amplified from A. terreus genomic DNA using splice by overlap extension PCR and was inserted into the pET28a expression vector. Overexpression of soluble, N-terminal 6×His fusion LovD was performed in E. coli strain BL21(DE3)/pAW31. LovD was purified using Nickel-NTA affinity column to homogeneity (final yield˜40 mg/L). The substrate monacolin J (1 mM) was prepared through the LiOH hydrolysis of lovastatin and was added to a reaction mixture containing pure LovD (10 μM) and butyryl-CoA (4 mM), which is a commercially available acyl-CoA that best mimics the natural α-methylbutyrate side chain. The reaction mixture was incubated at room temperature, extracted with ethyl acetate and analyzed by HPLC and LC-MS (FIG. 5).
We assayed the tolerance of LovD towards different acyl substituents by performing the transacylation assay with various commercially available acyl-CoAs (Table 1A). All assays were perform with 1 mM monacolin J, 4 mM acyl-CoA and 10 uM LovD for 10 hours.
Expression and purification of LovD has been previously described in detail (see, e.g., Xie et al., 2006, Chem Biol 13: 1161-1169). The assays were performed at room temperature in 50 mM HEPES, pH 7.9. The initial velocities (ki) of the acyl substrates were determined with 10 μM LovD, 1 mM monacolin J and 4 mM of the thioester. The reaction mixture at different time points was quenched by trifluoroacetic acid (TFA), extracted with ethyl acetate, evaporated to dryness and redissolved in acetonitrile. The percent conversion of monacolin J to simvastatin was determined by HPLC analysis (C18). The linear range of the turnover rate is reported as ki in Table 1B. To determine the Km of DMB-S-MMP, the concentration of monacolin J is fixed at 2 mM, while the concentration of DMB-S-MMP was varied from 0.2 mM to 10 mM. DMSO is added to a final concentration of 5% to facilitate solubilization of DMB-S-MMP. To obtain Km of monacolin J, DMB-S-MMP concentration is fixed at 2 mM, while the concentration of monacolin J is varied from 0.2 mM to 5 mM.

E. coli BL21(DE3)/pAW31 = test: Whole cell biocatalysis with E. coli overexpressing LovD; assay type: cell-based, Escherichia coli; conditions: 4 mM acyl donor
Protocol: The BL21(DE3)/pAW31 overexpression strain was grown in a shake flask (200 mL) to an OD600 of 1.0, at which time 1 mM IPTG, 0.8 mM monacolin J and 4 mM of either benzoyl-SNAC or benzoyl-SMTG were added to the culture. Expression of LovD and bioconversion was performed at 18° C. The culture was extracted and analyzed for the formation of 8-benzoyl-monacolin J. When supplemented with benzoyl-SNAC, 84% conversion of monacolin J was detected within 20 hours post-induction. The product was lactonized and purified by a single silica-gel chromatography step. The NMR spectra confirmed the regioselective benzoylation of the C8 hydroxyl group as the diagnostic H8 multiplet is shifted downfield to δ 5.61.
Fermentation conditions: 500 mL culture with LB media with 30 mg/L kanamycin. At OD600 of 1.0, cells were concentrated to a final OD600 of 5.0 and induced with 1 mM IPTG. Substrates monacolin J and α-dimethylbutyryl-SNAC were added to a final concentration of 1 mM and 4 mM. At different time points, culture samples were collected, centrifuged, filtered and injected on to HPLC (20 μL). Extraction conditions: When maximum conversion was reached, the broth was acidified to pH of 2.0, extracted with ethyl acetate, dried and redissolved in toluene.
Whole-cell catalytic synthesis of simvastatin acid from MJ acid and DMB-S-MMP were performed as described (see, e.g., Xie et al., (2007) Appl Environ Microbiol 73: 2054-2060). The E. coli BL21(DE3)/pAW31 and YT2/pAW31 strains were cultured side-by-side for comparison. A single colony of the freshly transformed strains was used to inoculate a 5 mL LB culture supplemented with 35 mg/L kanamycin and grown overnight at 37° C. The next morning, 100 μL of the overnight culture was inoculated into 50 mL cultures containing LB broth, F1 minimal medium and F1 medium supplemented with 0.15 mg/L biotin. Growth rates were monitored by periodically measuring the OD600 reading. When OD600 reached ˜0.5, 100 μM IPTG was added to the culture and expression of LovD was performed at 20° C. for 16 hours. To mimic high density fermentation conditions, the cells were concentrated 10-fold before addition of substrates. Typically, a 14 mL aliquot of the culture was transferred to a 15 mL centrifuge tube and the cells were collected by centrifugation (4° C., 4000 g, 10 minutes). The cell pellet was gently resuspended in 1316 μl of the supernatant, followed by addition of 84 μl of a MJ acid stock solution (250 mM in H2O) (final concentration 15 mM). The concentrated culture was then separated into seven 200 μL samples and 1.2 μL of pure DMB-S-MMP was added to each sample (final concentration ˜25 mM). The culture was then shaken at 300 rpm at room temperature. At each time point, a total extraction was performed by adding 10 μL 20% SDS to lyse the cells, followed by liquid-liquid extraction with 500 μL EA/1% AcOH. The organic phase was removed, evaporated, and redissolved in 50 μL ACN for HPLC analysis. For the BL21(DE3) sample, an additional 1.2 μL aliquot of DMB-S-MMP was added after 12 hours to replenish the hydrolyzed substrates.
The E. coli BL21(DE3)/pAW31 strain was grown in LB medium at 37° C. to an OD600 of 0.5, at which time 100 μM IPTG was added to the culture and expression was performed at RT for 16 hours. A 10 ml culture was transferred to a 15 mL centrifuge tube. The cells were collected by centrifugation (4000 g, 10 minutes). The cell pellet was resuspended in 957 μl of the supernatant. The pH was adjusted to pH 7.9 with 1.0 N NaOH, followed by addition of 33 μl 450 mM MJ (final concentration 15 mM) and 6 μl pure DMB-S-MMP (final concentration ˜25 mM). The culture was then shaken at 300 rpm at room temperature. At each time point, a 4 μL aliquot was removed from the reaction mixture, quenched in 300 μL ethyl acetate containing 1% TFA.

BioH = molecular target: T2, BioH (Escherichia coli, UniProt P13001); test: BioH enzymatic hydrolysis assay of dimethylbutyryl thioesters, HPLC 234 nm; assay type: biochemical; conditions: 1 mM substrate, 10 nM BioH
T2 construct: The bioH gene was amplified from E. coli genomic DNA by PCR with flanking restriction sites NdeI and EcoRI; 6xHis (N); made in house; host or cells: E. coli BL21(DE3)/pXK8 (pET28a)
T2 sequence (P13001 1-256): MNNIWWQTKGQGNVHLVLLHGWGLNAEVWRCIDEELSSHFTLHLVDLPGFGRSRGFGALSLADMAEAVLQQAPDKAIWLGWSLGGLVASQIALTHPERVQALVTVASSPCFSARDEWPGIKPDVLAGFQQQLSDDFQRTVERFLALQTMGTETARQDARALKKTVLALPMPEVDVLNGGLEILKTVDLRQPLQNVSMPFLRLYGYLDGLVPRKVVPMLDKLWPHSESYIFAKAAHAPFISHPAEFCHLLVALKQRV
Protocol: (§1) The hydrolysis assays were performed at room temperature in 50 mM HEPES, pH 7.9. The thioester substrate DMB-S-MMP was added to final concentration between 0.1 mM and 1.0 mM. To facilitate solubilization of DMB-S-MMP, DMSO was added to a final concentration of 10% for all the samples. The reaction was initiated with the addition of BioH (0.01 μM) and quenched at desired time points (10, 20, 30 minutes) by adding equal volume of EA/1% AcOH. The organic phase was separated, dried and redissolved in 20 μL of ACN and analyzed with HPLC. The conversions of DMB-S-MMP to DMB-S-MPA were quantified by integration of the peaks at 234 nm. Comparison of the BioH catalytic efficiency towards the three dimethylbutyryl thioesters were performed at 1 mM substrate concentration and 10 nM BioH concentration.

[1] = substrate: CCC(C)(C)C(=O)SCCC(=O)OC; test: as above; assay type: biochemical, Escherichia coli; conditions: other: 50 mM HEPES, pH 7.9, 10% DMSO, 0.01 μM BioH
Protocol: as §1

C[C@H]1C=C2C=C[C@H](C)[C@H](CC[C@@H]3C[C@@H](O)CC(=O)O3)[C@H]2[C@@H](O)C1 [monacolin J]
Km (LovD; DMB-S-MMP fixed at 2 mM, monacolin J 0.2-5 mM): 780 ± 120 µM

CCC(C)(C)C(=O)SCCNC(C)=O [DMB-S-NAC, α-dimethylbutyryl-S-N-acetylcysteamine]
Initial Velocity (ki) (LovD): 0.02 min⁻¹
conversion of monacolin J to simvastatin, low cell-density fermentation (E. coli BL21(DE3)/pAW31; 1 mM monacolin J, after two days of culturing): ~90%

CCC(C)(C)C(=O)SCC(=O)OC [DMB-S-MTG, dimethylbutyryl-S-methyl thioglycolate]
decrease in the rate of hydrolysis by BioH relative to DMB-S-MMP (BioH): 2.5 fold
Initial Velocity (ki) (LovD): 0.03 min⁻¹

CC(=O)CC(=O)SCCNC(=O)CCNC(=O)[C@H](O)C(C)(C)COP(=O)(O)OP(=O)(O)OC[C@H]1O[C@@H](n2cnc3c(N)ncnc32)[C@H](O)[C@@H]1OP(=O)(O)O [Acetoacetyl-CoA, reference compound]
substrate competence for LovD (LovD): excellent substrates

CCC(C)(C)C(=O)SCCCC(=O)OC [DMB-S-MMB, dimethylbutyryl-S-methyl mercaptobutyrate]
Initial Velocity (ki) (LovD): 0.78 min⁻¹

CCOC(=O)CCSC(=O)C(C)(C)CC [DMB-S-EMP, dimethylbutyryl-S-ethyl mercaptopropionate]
rate of substrate hydrolysis by BioH relative to DMB-S-MMP (BioH): significantly attenuated
Initial Velocity (ki) (LovD): 0.70 min⁻¹

CCCCCCCCCCCCCCCC(=O)SCCNC(=O)CCNC(=O)[C@H](O)C(C)(C)COP(=O)(O)OP(=O)(O)OC[C@H]1O[C@@H](n2cnc3c(N)ncnc32)[C@H](O)[C@@H]1OP(=O)(O)O [palmitoyl-CoA, reference compound]
substrate competence for LovD (LovD): inactive

CC(O)CC(=O)SCCNC(=O)CCNC(=O)[C@H](O)C(C)(C)COP(=O)(O)OP(=O)(O)OC[C@H]1O[C@@H](n2cnc3c(N)ncnc32)[C@H](O)[C@@H]1OP(=O)(O)O (stereo partly drawn) [β-hydroxylbutyryl-CoA, reference compound]
substrate competence for LovD (LovD): excellent substrates

CC(=O)NCCSC(=O)c1ccccc1 [benzoyl-SNAC]
apparent kcat (initial turnover rate in the linear range) of monacolin J acylation (LovD): 0.002 s⁻¹
conversion of monacolin J (benzoylation) in vivo (E. coli BL21(DE3)/pAW31; 0.8 mM monacolin J, 18° C., within 20 hours post-induction): 84%

CC(C)(COP(=O)(O)OP(=O)(O)OC[C@H]1O[C@@H](n2cnc3c(N)ncnc32)[C@H](O)[C@@H]1OP(=O)(O)O)[C@@H](O)C(=O)NCCC(=O)NCCSC(=O)CC(=O)O [malonyl-CoA, reference compound]
substrate competence for LovD (LovD): inactive

CC[C@H](C)C(=O)SCCNC(C)=O [α-S-methylbutyryl-SNAC]
apparent kcat (initial turnover rate in the linear range) of monacolin J acylation (LovD): ~0.00067 s⁻¹

CCCC(=O)SCCNC(C)=O [butyryl-SNAC]
apparent kcat (initial turnover rate in the linear range) of monacolin J acylation (LovD): 0.0015 s⁻¹

B1: BioH (Escherichia coli K-12) (protein)
chain: T2 sequence (P13001 1-256)
notes: The bioH gene was amplified from E. coli genomic DNA by PCR with flanking restriction sites NdeI and EcoRI; 6xHis (N); made in house; host or cells: E. coli BL21(DE3)/pXK8 (pET28a)
Km [1]: 229 ± 26 µM
kcat [1]: 260 ± 45 s⁻¹
